Assay [1] relates to HeLa cells. Put plainly: IL-8 response (IL-8 ELISA) in HeLa cells. In kind it is cell-based, human. Here is the method:
• Cells: HeLa (adenocarcinoma, human) • Media: DMEM/F12+10% FBS Adherent • 1) Cells were seeded at 0.2×10^6 cells/well in 6-well plates. • 2) Confluency of cells after 24–32 hrs was between 60–70%. B. Overnight Serum-Starvation • 1) Media was aspirated (no PBS wash). • 2) 1.5 ml 0.5% FBS media was added to each well. C. Treatments and Collection • 1) Made up all required solutions in 0.5% FBS media (control). Handling of […] for use in NF-κB experiments requires that sonication, commonly used to resuspend LPA, not be done; NF-κB may be activated by lipid peroxides created through vigorous frothing. Solutions:
D. Detection of Interleukin-8 (IL-8) using an IL-8 ELISA (Enzyme-Linked ImmunoSorbent Assay). • 1) The Quantikine Human IL-8 Immuno Assay Kit was obtained from R&D Systems (Cat. D8050). • 2) The kit and all samples were allowed to equlibrate to room temperature prior to use. • 3) All reagents were provided in the kit and prepared according to the instructions provided. • 4) The assay procedure was followed as recommended in the kit for cell culture supernatant samples. • 5) ELISA was performed on 50 μl samples of culture supernatant and duplicate samples were measured for each well. Each treatment was performed on triplicate wells. • 6) Plates were read on UV max kinetic microplate reader (Molecular Devices), set to 450 nm and correction set to 575 nm, using Wsoftmax sotware version 2.34.
• 1) Cells were seeded at 2.5×10^4 cells/well in 24-well plates. • 2) Confluency of cells after 24–32 hrs was between 60–70%. B. Overnight Serum-Starvation and PTX Pre-Treatment • 1) Media was aspirated (no PBS wash). • 2) 0.5 ml 0.5% FBS media was added to all wells not requiring PTX pre-treatment. • 3) For well requiring PTX; 0.5 ml 0.5% FBS media containing 50 ng/ml PTX (1 volume PTX (RBI Cat. P140): 1 volume DTT, incubate 37° C. for 30 minutes then dilute to 50 ng/ml) was added. C. Treatments and Collection • 1) Made up all required solutions in 0.5% FBS media (control). […] D. Refer to Procedure #1 For HeLa Cells (D).

Assay [2] concerns the target T1, EDG-6 (Homo sapiens, UniProt Q9HBW0).
T1 construct: expressed in transfected cells; host or cells: 293-EBNA
As to the kind of experiment: AP-1 reporter in 293-EBNA cells, EDG-6. In kind it is cell-based. The settings on record: 10 μM LPA. The source says:
LPA, like S1P, is abundant in serum, but not plasma. Moreover, LPA is produced as a consequence of phospholipase A2 with or without the contribution of phospholipase D (depending on the phospholipid substrate). […] To date we have identified three subtypes of edg receptors that respond to LPA as an agonist. These are EDG-2, […] (referred to also as LPA1, LPA2 and LPA3, respectively (Chun, J, Contos, JJA and Munroe, DG. 1998. A growing family of receptor genes for lysophophatidid acid (LPA) and other lyso-phospholipids. Cell Biochem Biophys (in press)). The EDG-5 receptor is set out in co-pending U.S. application Ser. No. 08/997,803 to MUNROE et al., incorporated herein to reference and the amino acid sequence and cDNA sequence for the EDG-6 receptor is set out in FIGS. 21 and 22, respectively. To determine whether these receptors might mediate inflammatory responses, each was cotransfected separately with SRE, NF-κB or AP-1 reporter genes. […] This transcription factor, like NF-κB has been implicated in inflammatory and neoplastic signal transduction, though the gene targets of its action are largely distinct from those of NF-κB (Adcock I M. 1997. Transcription factors as activators of gene transcription; AP-1 and NF-κB. Monaldi Arch Chest Dis 52:178–186. Review). […]

Assay [3] concerns 293-EBNA cells. Put plainly: IL-8 production in 293-EBNA cells. The assay is classed as cell-based. Particulars: untransfected.
Assay [4] deals with Human Umbilical Vein Endothelial Cells (HUVEC). As to the kind of experiment: IL-8 response in primary cultured HUVEC. The assay is classed as cell-based. The settings on record: 5 μM, 6 hr. As for the experimental part: Cells: HUVEC (Clonetics, Cat. CC-2519) were passaged according to supplier's instructions and used at passage 3. Cells were plated at 20,000 cells/well into 24-well plates. […] LPA induced a 3-fold IL-8 increase at this concentration. […] As shown below in FIG. 23, three cloned edge receptors respond to LPA as an agonist, and all three appear to transduce NF-κB activation in an agonist-dependent manner.

For assay [5], the target named is T2, human EDG-4 (Homo sapiens, UniProt O95136, F273L/I205V).
T2 construct: a 1059 bp open reading frame (excluding the stop codon) corresponding to the complete human edg-4 coding region; expressed in transfected cells; host or cells: 293-EBNA
Put plainly: NF-κB luciferase reporter in 293-EBNA cells, human EDG-4. In kind it is cell-based. The settings on record: Assay 3; pC3-hedg4#36; 3 μM; 6 hours. In general terms: In a reporter assay the amount or activity of a reporter protein is the signal.
Method: (§1) The protocol described in Example 11 for Assay 1 was allowed except for the following changes: • 1) 100 mm plates of 293-EBNA ith a confluency of ˜80% were used for transfection, • 2) SRE Cotransfection: 0.5 μg of 2XSREtk-p4Luc-zeo reporter DNA and 3.5 μg pcDNA3, EDG-1, EDG-3 pC3-hE3P2, different from the clone used in Assay 2 of Example 11) or the newly cloned human EDG-4 (pC3-hedg4#36); NF-κB Cotransfection: 2 μg 6XNFκBtk-p4LUc-zeo reporter DNA and 2.0 μg pcDNA3, EDG-1, EDG-3 (pC3-hE3HP2), or EDG-4 (pC3-hedg4#36). Expression plasmid and reporter plasmid DNA samples were combined and diluted in 750 μl of DMEM/F12 (serum free media) and 20 μl Plus Reagent (Lipofectamine Plus Kit, Life Technologies Cat. 109640-13), and incubated at room temperature for 15 min. • 3) 30 μl Lipofectamine Reagent (Lipofectamine Plus Kit) was diluted in 750 μl DMEM/F12. The diluted Lipofectamine was then combined with the DNA/Plus mixture and incubated at room temperature for 15 min. • 4) The 293-EBNA plates were washed once with PBS and 5 ml DMEM/F12 was added to each plate. • 5) DNA/Plus/Lipofectamine mixture was added to each plate of 293-EBNA cells. […]

The target in assay [6] is EDG-1 (Homo sapiens, UniProt P21453). Put plainly: SRE luciferase reporter (2XSREtk-p4Luc-zeo) in 293-EBNA cells, EDG-1. The settings on record: Assay 3; 3 μM; 6 hours. The assay is classed as cell-based.
Method: as §1
Assay [7] deals with EDG-7. As to the kind of experiment: SRE reporter, EDG-7. In kind it is cell-based.
The subject of assay [8] is COS-1 cells. Put plainly: IL-8 response in control COS-1 cells (empty vector pcDNA3). The assay is classed as cell-based. Particulars: control cells transfected with pcDNA3; 5 μm S1P.
In assay [9] the test system is EDG-7. As to the kind of experiment: NF-κB reporter, EDG-7. The assay is classed as cell-based.

Entries after “also recorded” stand apart in the source; their conditions may differ.

T2 sequence (O95136 whole entry I205V/F273L): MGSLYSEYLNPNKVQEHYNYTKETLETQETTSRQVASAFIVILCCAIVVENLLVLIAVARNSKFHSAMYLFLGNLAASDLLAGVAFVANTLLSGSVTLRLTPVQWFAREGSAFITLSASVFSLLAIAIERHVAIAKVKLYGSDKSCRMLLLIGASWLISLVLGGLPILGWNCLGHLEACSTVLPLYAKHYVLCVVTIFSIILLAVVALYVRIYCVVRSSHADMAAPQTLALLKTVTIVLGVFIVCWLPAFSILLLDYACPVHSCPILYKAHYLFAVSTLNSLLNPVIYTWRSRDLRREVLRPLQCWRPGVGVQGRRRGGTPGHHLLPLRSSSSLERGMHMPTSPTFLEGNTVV
Sequence of EDG-1 (P21453 whole entry): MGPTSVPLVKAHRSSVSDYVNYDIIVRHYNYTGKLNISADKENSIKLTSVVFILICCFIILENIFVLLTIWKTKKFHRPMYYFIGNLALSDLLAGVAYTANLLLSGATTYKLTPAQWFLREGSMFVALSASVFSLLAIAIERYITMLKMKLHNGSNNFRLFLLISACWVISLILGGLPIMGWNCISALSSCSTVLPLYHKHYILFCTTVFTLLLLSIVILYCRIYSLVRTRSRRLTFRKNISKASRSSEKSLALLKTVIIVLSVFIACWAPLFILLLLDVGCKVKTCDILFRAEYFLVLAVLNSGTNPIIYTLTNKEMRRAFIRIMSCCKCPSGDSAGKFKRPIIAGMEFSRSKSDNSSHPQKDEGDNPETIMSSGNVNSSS
T1 sequence (Q9HBW0 with tags, fused parts or gaps): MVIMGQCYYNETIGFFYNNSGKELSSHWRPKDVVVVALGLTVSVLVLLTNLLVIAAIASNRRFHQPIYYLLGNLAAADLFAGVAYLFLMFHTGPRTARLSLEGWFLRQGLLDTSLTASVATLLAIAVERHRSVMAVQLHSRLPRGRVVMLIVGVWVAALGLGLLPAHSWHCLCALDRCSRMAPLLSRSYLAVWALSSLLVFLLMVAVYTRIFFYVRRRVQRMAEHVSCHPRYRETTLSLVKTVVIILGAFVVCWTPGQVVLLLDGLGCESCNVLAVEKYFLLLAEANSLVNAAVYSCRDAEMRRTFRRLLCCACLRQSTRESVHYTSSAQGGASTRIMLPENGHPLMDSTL

For the molecule lysophosphatidic acid [LPA], the IL-8 response entry in assay [1] (1 and 10 μM, 1, 6 or 24 hours) was “not”. Further, the “induction of the AP-1 reporter” value in assay [2] is listed as “strongly induced”. Also, in assay [3], the IL-8 production result is reported as “no IL-8 production”.
For the molecule `CCCCCCCCCCCCC/C=C/[C@@H](O)[C@@H](N)COP(=O)([O-])OCC[N+](C)(C)C` [SPC, sphingosylphosphorylcholine], the “IL-8 levels, increase over untreated controls” value in assay [4] was “Marginal increases”. Also, the IL-8 induction entry in assay [1] (6 hours, concentration series) is recorded as “can induce IL-8 in HeLa cells in a concentration-dependent manner; also recorded: significantly induced IL-8 production”. Further, the “induction of the NF-κB reporter gene” value in assay [5] is 9 fold.
Consider `CCCCCCCCCCCCC/C=C/[C@@H](O)[C@@H](N)COP(=O)(O)O` [S1P, sphingosine 1-phosphate], for which the “IL-8 levels, increase over untreated controls” value in assay [4] was “approximately 5 fold”. Moreover, the “increase in luciferase activity (SRE reporter)” value in assay [6] worked out at 8 fold. Also, in assay [3], the IL-8 production entry was “no IL-8 production”. Moreover, the SRE reporter response result in [7] was “respond through the SRE reporter”. In assay [8], the “IL-8 response to S1P” value is “No IL-8”. Further, in [9], the NF-κB reporter response result is reported as “fail to signal through NF-κB reporters”. For the same molecule, the “induction of the NF-κB reporter gene” value in assay [5] is 4.5 fold.

The record behind these values is US7052850B2, “Isolated human EDG-4 receptor” (priority 1997, dated 2006).
